Data as given in ChEMBL document CHEMBL1150434, “Semisynthetic modification of hygromycin A. 1. Synthesis and antibacterial activity of vinyl methyl and amide analogs” (1992).
Converted amounts (≈) assume the structure as drawn. The source made the active and inactive calls. The rule behind the calls is not given here.

The compounds below were run on Brachyspira hyodysenteriae (assay: Antibacterial activity against Serpulina hyodysenteriae).
Type: functional

Row | SMILES | MIC [µg/mL]
1 | CC/C(=C\c1ccc(O[C@@H]2O[C@H]([C@@H](C)O)[C@@H](O)[C@@H]2O)c(O)c1)C(=O)N[C@@H]1[C@H](O)[C@@H](O)[C@H]2OCO[C@H]2[C@@H]1O | 3.13 (≈ 5.93 µM)
2 | C#CC/C(=C\c1ccc(O[C@@H]2O[C@H]([C@@H](C)O)[C@@H](O)[C@@H]2O)c(O)c1)C(=O)N[C@@H]1[C@H](O)[C@@H](O)[C@H]2OCO[C@H]2[C@@H]1O | 100 (≈ 186 µM)
3 | C[C@@H](O)[C@H]1O[C@@H](Oc2ccc(/C=C/C(=O)N[C@@H]3[C@H](O)[C@@H](O)[C@H]4OCO[C@H]4[C@@H]3O)cc2O)[C@@H](O)[C@@H]1O | 100 (≈ 200 µM)
4 | C/C(=C\c1ccc(O[C@@H]2O[C@H]([C@@H](C)O)[C@@H](O)[C@@H]2O)c(O)c1)C(=O)N[C@@H]1[C@H](O)[C@@H](O)[C@H]2OCO[C@H]2[C@@H]1O | 3.13 (≈ 6.1 µM)
5 | CC(=O)[C@H]1O[C@@H](Oc2ccc(C=C(C)C(=O)N[C@@H]3[C@H](O)[C@@H](O)[C@H]4OCO[C@H]4[C@@H]3O)cc2O)[C@@H](O)[C@@H]1O [HYGROMYCIN A] | 0.78 (≈ 1.52 µM)
6 | C=CC/C(=C\c1ccc(O[C@@H]2O[C@H]([C@@H](C)O)[C@@H](O)[C@@H]2O)c(O)c1)C(=O)N[C@@H]1[C@H](O)[C@@H](O)[C@H]2OCO[C@H]2[C@@H]1O | > 200
7 | C[C@@H](O)[C@H]1O[C@@H](Oc2ccc(/C=C(\Br)C(=O)N[C@@H]3[C@H](O)[C@@H](O)[C@H]4OCO[C@H]4[C@@H]3O)cc2O)[C@@H](O)[C@@H]1O | 3.13 (≈ 5.41 µM)
8 | CCC/C(=C\c1ccc(O[C@@H]2O[C@H]([C@@H](C)O)[C@@H](O)[C@@H]2O)c(O)c1)C(=O)N[C@@H]1[C@H](O)[C@@H](O)[C@H]2OCO[C@H]2[C@@H]1O | > 200
9 | C[C@@H](O)[C@H]1O[C@@H](Oc2ccc(/C=C(\Cl)C(=O)N[C@@H]3[C@H](O)[C@@H](O)[C@H]4OCO[C@H]4[C@@H]3O)cc2O)[C@@H](O)[C@@H]1O | 6.25 (≈ 11.7 µM)

Each compound was assayed on Brachyspira hyodysenteriae (assay: Tested for antibacterial activity against Serpulina hyodysenteriae at a concentration of up to 200 ug/mL; IA= Inactive).
Type: functional, organism-based

Row | SMILES | Activity
10 | C/C(=C\c1ccc(O[C@@H]2O[C@H]([C@H](C)O)[C@@H](O)[C@@H]2O)c(O)c1)C(=O)N[C@H]1C(O)O[C@H](CO)[C@@H](O)[C@@H]1O (some centres not stated) | inactive
11 | C/C(=C\c1ccc(O[C@@H]2O[C@H]([C@H](C)O)[C@@H](O)[C@@H]2O)c(O)c1)C(=O)N1CCN(C)CC1 | inactive
12 | C/C(=C\c1ccc(O[C@@H]2O[C@H]([C@H](C)O)[C@@H](O)[C@@H]2O)c(O)c1)C(=O)N[C@@H]1CCC[C@H]1O | inactive
13 | C/C(=C\c1ccc(O[C@@H]2O[C@H]([C@H](C)O)[C@@H](O)[C@@H]2O)c(O)c1)C(=O)N1CCN(C(=O)N2CCNCC2)CC1 | inactive
14 | C/C(=C\c1ccc(O[C@@H]2O[C@H]([C@H](C)O)[C@@H](O)[C@@H]2O)c(O)c1)C(=O)NCCO | inactive
15 | C/C(=C\c1ccc(O[C@@H]2O[C@H]([C@H](C)O)[C@@H](O)[C@@H]2O)c(O)c1)C(=O)N1CCOCC1 | inactive
16 | C/C(=C\c1ccc(O[C@@H]2O[C@H]([C@H](C)O)[C@@H](O)[C@@H]2O)c(O)c1)C(=O)N1CCNCC1 | inactive
17 | C/C(=C\c1ccc(O[C@@H]2O[C@H]([C@H](C)O)[C@@H](O)[C@@H]2O)c(O)c1)C(=O)N1CCCCC1CO (some centres not stated) | inactive
18 | C/C(=C\c1ccc(O[C@@H]2O[C@H]([C@H](C)O)[C@@H](O)[C@@H]2O)c(O)c1)C(=O)N[C@H]1CC[C@H](O)CC1 | inactive
19 | C/C(=C\c1ccc(O[C@@H]2O[C@H]([C@H](C)O)[C@@H](O)[C@@H]2O)c(O)c1)C(=O)N[C@@H]1C(O)O[C@H](CO)[C@@H](O)[C@@H]1O (some centres not stated) | inactive
20 | C/C(=C\c1ccc(O[C@@H]2O[C@H]([C@H](C)O)[C@@H](O)[C@@H]2O)c(O)c1)C(=O)NC1CCCCC1 | inactive
21 | C/C(=C\c1ccc(O[C@@H]2O[C@H]([C@H](C)O)[C@@H](O)[C@@H]2O)c(O)c1)C(=O)N1CCC[C@H]1C(=O)O | inactive
22 | C/C(=C\c1ccc(O[C@@H]2O[C@H]([C@H](C)O)[C@@H](O)[C@@H]2O)c(O)c1)C(=O)NC(CO)CO | inactive
23 | C/C(=C\c1ccc(O[C@@H]2O[C@H]([C@H](C)O)[C@@H](O)[C@@H]2O)c(O)c1)C(=O)NC1(CO)CCCC1 | inactive
24 | C/C(=C\c1ccc(O[C@@H]2O[C@H]([C@H](C)O)[C@@H](O)[C@@H]2O)c(O)c1)C(=O)N[C@@H]1CCC[C@@H]1O | inactive
25 | C/C(=C\c1ccc(O[C@@H]2O[C@H]([C@H](C)O)[C@@H](O)[C@@H]2O)c(O)c1)C(=O)N[C@@H]1CCCC[C@@H]1O | inactive
26 | C/C(=C\c1ccc(O[C@@H]2O[C@H]([C@H](C)O)[C@@H](O)[C@@H]2O)c(O)c1)C(=O)N[C@@H]1CCCC[C@H]1O | inactive
27 | C/C(=C\c1ccc(O[C@@H]2O[C@H]([C@H](C)O)[C@@H](O)[C@@H]2O)c(O)c1)C(=O)N1CCC[C@H]1CO | inactive
